In PubChem BioAssay AID328 (DTP/NCI, 2004):
Several values for one entry are separate records, joined by “and”; a condition that tells them apart may be missing. Identical values can stand only once. Toxic doses and inconclusive results are not listed. How the source made its calls: active means survival T/C of 150% or more; inactive means T/C below 125% in these data.

Tested on: BDF1 mice, P388 leukemia ip, median survival T/C
Assay: NCI In Vivo Anticancer Drug Screen. Data for tumor model P388 Leukemia (intraperitoneal) in B6D2F1 (BDF1) mice
Conditions: endpoint: median survival time, higher = longer survival
In short: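 Vehicle-dosed animals serve as the reference; survival of compound-dosed, tumour-implanted mice is divided by it.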

[1] = dose: 50.0 mg/kg/injection, schedule: Q01DX009 (ip), vehicle: saline with Tween-80
[2] = dose: 100.0 mg/kg/injection, schedule: Q01DX009 (ip), vehicle: saline with Tween-80
[3] = dose: 100.0 mg/kg/injection, schedule: Q04DX003 (ip), vehicle: saline with Tween-80
[4] = dose: 200.0 mg/kg/injection, schedule: Q04DX003 (ip), vehicle: saline with Tween-80
[5] = dose: 400.0 mg/kg/injection, schedule: Q04DX003 (ip), vehicle: saline with Tween-80
[6] = dose: 200.0 mg/kg/injection, schedule: Q01DX009 (ip), vehicle: saline with Tween-80
[7] = dose: 400.0 mg/kg/injection, schedule: Q01DX009 (ip), vehicle: saline with Tween-80

Measured: T/C

CN=C(N)c1ccc(N=C(N)c2ccc(N=C(N)c3ccc(NC(=O)Nc4cccc(NC(=O)Nc5ccc(C(N)=Nc6ccc(C(N)=Nc7ccc(C(N)=NC)cc7)cc6)cc5)c4)cc3)cc2)cc1
active: dose: 3.0 mg/kg/injection, schedule: Q01DX009 (ip), vehicle: saline with Tween-80 162 % of control | dose: 4.5 mg/kg/injection, schedule: Q04DX003 (ip), vehicle: saline with Tween-80 150 % of control | dose: 5.0 mg/kg/injection, schedule: Q01DX009 (ip), vehicle: saline with Tween-80 175 % of control and 195 % of control | dose: 7.0 mg/kg/injection, schedule: Q04DX003 (ip), vehicle: saline with Tween-80 150 % of control | dose: 8.0 mg/kg/injection, schedule: Q01DX009 (ip), vehicle: saline with Tween-80 212 % of control | dose: 11.0 mg/kg/injection, schedule: Q04DX003 (ip), vehicle: saline with Tween-80 154 % of control | dose: 12.0 mg/kg/injection, schedule: Q01DX009 (ip), vehicle: saline with Tween-80 168 % of control and 170 % of control | dose: 17.0 mg/kg/injection, schedule: Q04DX003 (ip), vehicle: saline with Tween-80 170 % of control and 179 % of control | dose: 18.0 mg/kg/injection, schedule: Q01DX009 (ip), vehicle: saline with Tween-80 240 % of control and 192 % of control | dose: 25.0 mg/kg/injection, schedule: Q04DX003 (ip), vehicle: saline with Tween-80 200 % of control | dose: 27.0 mg/kg/injection, schedule: Q01DX009 (ip), vehicle: saline with Tween-80 200 % of control | dose: 37.0 mg/kg/injection, schedule: Q04DX003 (ip), vehicle: saline with Tween-80 166 % of control and 191 % of control | dose: 37.5 mg/kg/injection, schedule: Q04DX003 (ip), vehicle: saline with Tween-80 181 % of control | dose: 55.0 mg/kg/injection, schedule: Q04DX003 (ip), vehicle: saline with Tween-80 158 % of control and 195 % of control
inactive: dose: 0.8 mg/kg/injection, schedule: Q01DX009 (ip), vehicle: saline with Tween-80 119 % of control | dose: 37.0 mg/kg/injection, schedule: Q01DX009 (ip), vehicle: saline with Tween-80 100 % of control

O=C1/C(=C/c2ccc(Cl)cc2Cl)CCC/C1=C\c1ccc(Cl)cc1Cl
inactive: dose: 25.0 mg/kg/injection, schedule: Q01DX009 (ip), vehicle: saline with Tween-80 88 % of control | [1] 100 % of control | [2] 88 % of control

C[n+]1c(-c2cc(Cl)cc(Cl)c2)c2cc([N+](=O)[O-])ccc2c2ccccc21
inactive: dose: 50.0 mg/kg/injection, schedule: Q04DX003 (ip), vehicle: water 120 % of control | dose: 200.0 mg/kg/injection, schedule: Q04DX003 (ip), vehicle: water 122 % of control | dose: 400.0 mg/kg/injection, schedule: Q04DX003 (ip), vehicle: water 110 % of control

Clc1ccc(CN2COc3c(ccc4cccnc34)C2)cc1Cl
inactive: dose: 50.0 mg/kg/injection, schedule: Q04DX003 (ip), vehicle: saline with Tween-80 104 % of control | [3] 104 % of control and 118 % of control | [4] 109 % of control | [5] 120 % of control

NC(=O)CC(NC(=O)OCc1ccccc1)C(=O)OCc1ccccc1 (stereo unspecified)
inactive: [1] 109 % of control | [2] 100 % of control | [3] 99 % of control | [6] 93 % of control | [4] 102 % of control | [7] 103 % of control | [5] 90 % of control

CC(=O)N/N=C(/C)C(O)(c1ccccc1)c1ccccc1
inactive: [2] 99 % of control | [3] 103 % of control | [6] 100 % of control | [4] 99 % of control | [7] 99 % of control | [5] 87 % of control

Nc1ncnc2[nH]ncc12
inactive: dose: 1.5 mg/kg/injection, schedule: Q01DX010 (ip), vehicle: saline 90 % of control | dose: 3.0 mg/kg/injection, schedule: Q01DX010 (ip), vehicle: saline 104 % of control and 115 % of control | dose: 6.0 mg/kg/injection, schedule: Q01DX010 (ip), vehicle: saline 100 % of control | dose: 12.0 mg/kg/injection, schedule: Q01DX010 (ip), vehicle: saline 109 % of control and 110 % of control

Cc1cc(C)c2nccc(/C=C/c3ccc(N(C)C)cc3)c2c1
inactive: [1] 93 % of control | [2] 103 % of control

CCCCCCCCCCCC(=O)c1ccc(Cl)cc1
inactive: [2] 91 % of control | [6] 92 % of control | [7] 109 % of control

COC(=O)C1CCCCC1NC(C)=O (stereo unspecified)
inactive: dose: 100.0 mg/kg/injection, schedule: Q04DX003 (ip), vehicle: saline 95 % of control | dose: 200.0 mg/kg/injection, schedule: Q04DX003 (ip), vehicle: saline 100 % of control | dose: 400.0 mg/kg/injection, schedule: Q04DX003 (ip), vehicle: saline 91 % of control
